Key:
PDE10A = target: T1, PDE10A (Homo sapiens, UniProt Q9Y233); test: PDE10A purified enzyme activity assay (BPS Bioscience); format: biochemical; conditions: dose response analysis
T1 construct: purchased BPS Bioscience
Description: We therefore defined the structure activity relationship (SAR) of PPV relative to two assays: inhibition of cellular OCR by Seahorse XE assay, and inhibition of PDE10A by purified enzyme activity (PDE10A activity assay, BPS Bioscience). […] Because the top portion of PPV was a planar structure like that of rotenone, we decided to focus our attention on the lower portion of the molecule.

MC38 colorectal tumor = test: MC38 colorectal tumors in C57Bl6 mice, sensitization to anti PD-1; format: in vivo, mouse
Experimental: MC38 tumors grown in C57B16 mice were treated as indicated with irrelevant antibody, anti PD-1, or anti PD-1 after PPV or SMV32 n=5-7, P=<0.05* for PPV and <0.01** for SMV32.
Papaverine and SMV32 enhance PD-1 checkpoint blockade immunotherapy for cancer treatment. Because of the literature describing the immunomodulatory effects of hypoxia^(24-27), we hypothesized that reducing hypoxia may also enhance tumor lymphocyte infiltration and function and improve immune-mediated tumor cell killing. As those of skill in the art recognize, there is a large body of literature and research on increase the supply side of the hypoxia equation, but it has been heretofore an unexpected approach to decrease the tri demand side of the hypoxia equation. We tested tumors grown from the relatively immune-sensitive syngeneic MC38 colorectal tumor line in immuno-competent C5713116 mice. […] In a second cohort, we implanted 1×10^6 cells/mouse and after 5 days, when tumors were 50-100 mm^3, they were randomized into four groups. Therapy was started with either control rat IgG antibody, or a suboptimal dose of anti PD-1(CD279) blocking monoclonal antibody (BioXCell, clone 29F.1A12, 100 μg ip every 3 days).

CMT167 flank lung tumors = CMT167 flank lung tumors in C57Bl6 mice, sensitization to anti PD-1; format: in vivo, mouse; conditions: given 16 hours prior to sub-optimal anti-PD-1, days 10 and 13
Experimental: C57B16 mice bearing CMT167 flank lung tumors were treated as indicated on days 10 and 13 and relative volume followed.
There are reports in the literature indicating ways that hypoxia affects immune functions of lymphocytes, MDSCs and T regulatory cells infiltrating in the tumor.

LLC tumor = test: Lewis Lung Carcinoma (LLC) PD-1 blockade resistant tumor model; format: in vivo, mouse; conditions: treated on days 5, 8
Experimental: LLC tumor bearing mice were treated as indicated on days 5, 8 and relative growth followed. P=NS for PD-1 vs PPV->PD1, 0.04 for PD-i vs SMV32->PD-1.
Finally, as a rigorous test of anti-hypoxia agents as immuno-sensitizers of model tumors grown in mice, we next tested the PD-1 blockade resistant tumor model Lewis Lung Carcinoma (LLC). These tumors have been reported to be refractory to even full dose (200 ug/mouse) PD-1 blocking antibody.

MP2 pODD flank tumors = test: in vivo bioluminescent imaging, heterotopic MP2 pODD flank tumors; set-up: species or system mouse; conditions: intraperitoneal delivery of 2 mg/kg
Experimental: In vivo bioluminescent imaging. […] For heterotopic flank tumor experiments, 1×10^6 HeLa pODD or 5×10^6 MP2 cells were injected subcutaneously (s.c.) into the flanks of 6-wk-old female (HeLa pODD) or male (N1P2 pODD or MP2 CMV) immunocompromised athymic nu/nu mice. Replicate experiments with groups of 4-6 mice were used for statistical reproducibility. Caliper measurements of opposing diameters were used to calculate the tumor volumes using the modified ellipsoidal formula: tumor volume=(length×width^2)[23]. Upon reaching 100 mm^3, the animals were given 100 mg/kg D-luciferin intraperitoneally and bioluminescence images were captured using IVIS In Vivo Imaging System Lumina II (Perkin Elmer Inc). […] Bioluminescent data were analyzed using living Image software (Perkin Elmer Inc) and calculated as photon flux/sec. Obtained individual photon flux peak values were then normalized to baseline for each mouse and averaged per group. Gas inhalation experiments were performed by switching medical air and carbogen gas sources for the IVIS anesthesia vaporizer. Initial baselines were established in medical air under anesthesia, then the mice were subjected to 30 minutes of either medical air or carbogen rebreathing in an air-tight chamber while awake. After 30 minutes, photon flux was established in respective gas sources as a carrier for isoflurane anesthesia.

[1] = test system: orthotopic MP2 pODD tumors; test: in vivo bioluminescent imaging, orthotopic MP2 pODD tumors; set-up: species or system mouse; conditions: tail vein injection
Experimental: (§1) Orthotopic Panreatic Xenografts. MP2 PD AC cells (1×10^6) or the indicated derivates were implanted in immune-deficient athymic nu/nu mice following fACLIC approved protocols. Briefly, an incision was placed in the right flank of anesthetized animals the spleen and pancreas liberated. Cells were mixed 1:1 with Matfigel and implanted in the tail of the pancreas in 10 μl. Incision was sutured in 2 layers, animals given long lasting analgesics, and allowed to recover from anesthesia. Mice were returned to housing for post-op care and monitored daily for 4 days. Animals were checked weekly after that by palpation to determine tumor growth.
(§2) In vivo bioluminescent imaging. All animal experiments were performed according to protocols approved by the OSU institutional IAGLIC review (protocol #201200000124-R2), with daily veterinarian observation. For heterotopic flank tumor experiments, 1×10^6 HeLa pODD or 5×10^6 MP2 cells were injected subcutaneously (s.c.) into the flanks of 6-wk-old female (HeLa pODD) or male (N1P2 pODD or MP2 CMV) immunocompromised athymic nu/nu mice. […] Mice were anesthetized with 1.5% isoflurane and bioluminescence was measured every two minutes for the period of 25 minutes to identify peak response of each mouse to D-luciferin. Bioluminescent data were analyzed using living Image software (Perkin Elmer Inc) and calculated as photon flux/sec. […]

[2] = test system: orthotopic MP2 CMV tumors; test: in vivo bioluminescent imaging, orthotopic MP2 CMV tumors; set-up: species or system mouse; conditions: single dose of 2 mg/kg by tail vein, up to 6 hours post injection
Experimental: as §1, §2

HeLa pODD flank tumors = test: in vivo bioluminescent imaging, HeLa pODD flank tumors; set-up: species or system mouse; conditions: 4 mg/kg by tail vein
Experimental: In vivo bioluminescent imaging. All animal experiments were performed according to protocols approved by the OSU institutional IAGLIC review (protocol #201200000124-R2), with daily veterinarian observation. For heterotopic flank tumor experiments, 1×10^6 HeLa pODD or 5×10^6 MP2 cells were injected subcutaneously (s.c.) into the flanks of 6-wk-old female (HeLa pODD) or male (N1P2 pODD or MP2 CMV) immunocompromised athymic nu/nu mice. Replicate experiments with groups of 4-6 mice were used for statistical reproducibility. Caliper measurements of opposing diameters were used to calculate the tumor volumes using the modified ellipsoidal formula: tumor volume=(length×width^2)[23]. Upon reaching 100 mm^3, the animals were given 100 mg/kg D-luciferin intraperitoneally and bioluminescence images were captured using IVIS In Vivo Imaging System Lumina II (Perkin Elmer Inc). Mice were anesthetized with 1.5% isoflurane and bioluminescence was measured every two minutes for the period of 25 minutes to identify peak response of each mouse to D-luciferin. Bioluminescent data were analyzed using living Image software (Perkin Elmer Inc) and calculated as photon flux/sec. Obtained individual photon flux peak values were then normalized to baseline for each mouse and averaged per group. […]

[3] = test system: spontaneous canine soft tissue sarcoma; test: BOLD MRI of spontaneous canine soft tissue sarcoma; format: in vivo, dog; conditions: for fraction of tumors responding well (T2* increase): one hour
Experimental: BOLD MRI analysis of canine tumors. Canine patients with primary sarcomas were enrolled in a trial to evaluate the effects of papaverine delivered at a dose of 1 or 2 mg/kg using ire blood oxygen level dependent (BOLD) magnetic resonance imaging (MRI). Dogs were anesthetized with isoflurane in medical air to effect on the bed of a Philips ingenia 3.071 UR scanner. They were first imaged with T1- (TR: 700ms, TE: 9ms, resolution 0.3×0.3×3 mm) and T2-weighted (TR: 3000 ms, TE: 80ms, resolution 0.4×0.4×3 mm) scans in transaxial, coronal, and sagittal orientations to acquire data covering the extent of the tumor. BOLD data were acquired as a series of 60 repeats of a volumetric echo-planar T2-weighted sequence (TR: 3000 ms, TE: 35 ms, resolution 1.6×1.6×4 mm) collected over a period of 3 minutes. In addition, a single slice fast field echo (FIFE) sequence (resolution 0.5×0.5×4 mm) was used to acquire 8 images at echo times from 5 to 75 ms, allowing fitting of pixel T2* values. After these acquisitions, papaverine was delivered intravenously and the BOLD and FEE data were acquired again one hour post-administration. All data were analyzed using the RT Image software package. BOLD data were registered using an affine transformation and percent signal change was calculated on a per-pixel basis: T2* values were fit on a pixel-by-pixel basis using a Levenberg-Marquardt least squares fit to a monoexponential decay function.

T1 sequence (Q9Y233 whole entry): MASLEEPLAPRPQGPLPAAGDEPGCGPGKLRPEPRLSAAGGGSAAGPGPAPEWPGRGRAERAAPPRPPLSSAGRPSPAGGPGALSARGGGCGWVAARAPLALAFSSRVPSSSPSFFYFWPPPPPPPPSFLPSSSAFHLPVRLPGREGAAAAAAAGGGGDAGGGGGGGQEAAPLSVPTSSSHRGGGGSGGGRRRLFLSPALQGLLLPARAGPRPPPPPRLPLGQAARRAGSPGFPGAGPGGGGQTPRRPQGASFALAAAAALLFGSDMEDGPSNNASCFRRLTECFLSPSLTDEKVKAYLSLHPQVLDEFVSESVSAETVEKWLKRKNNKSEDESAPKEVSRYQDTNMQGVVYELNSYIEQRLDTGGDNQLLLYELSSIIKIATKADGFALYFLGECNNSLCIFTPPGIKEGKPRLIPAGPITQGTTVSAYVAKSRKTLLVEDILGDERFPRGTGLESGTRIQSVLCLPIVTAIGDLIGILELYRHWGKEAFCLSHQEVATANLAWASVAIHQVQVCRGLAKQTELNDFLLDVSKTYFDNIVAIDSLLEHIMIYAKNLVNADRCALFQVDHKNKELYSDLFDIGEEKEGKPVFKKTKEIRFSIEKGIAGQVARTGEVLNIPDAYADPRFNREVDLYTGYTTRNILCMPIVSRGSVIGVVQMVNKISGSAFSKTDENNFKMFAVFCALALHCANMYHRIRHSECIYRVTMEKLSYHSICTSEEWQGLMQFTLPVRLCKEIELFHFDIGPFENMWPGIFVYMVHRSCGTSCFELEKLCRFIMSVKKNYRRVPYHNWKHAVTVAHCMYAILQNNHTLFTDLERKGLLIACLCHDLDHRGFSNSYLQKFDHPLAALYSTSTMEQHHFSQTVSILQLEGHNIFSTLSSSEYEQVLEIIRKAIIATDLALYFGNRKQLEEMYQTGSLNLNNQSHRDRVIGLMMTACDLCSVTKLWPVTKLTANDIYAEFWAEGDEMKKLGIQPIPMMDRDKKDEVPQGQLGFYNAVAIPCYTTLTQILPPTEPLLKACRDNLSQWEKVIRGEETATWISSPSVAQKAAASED

In the case of COc1ccc(Cc2nccc3cc(OC)c(OC)cc23)cc1OC [PPV, papaverine], the “PDE inhibition IC25” value (PDE10A) is reported as 650 nM, the “effect on PD-1 blockade” value (MC38 colorectal tumor; 2 mg/kg iv 16 hours prior to suboptimal anti PD-1 (100 μg ip every 3 days)) is reported as “enhance the effectiveness of suboptimal PD-1 blockade” and the “tumor growth, compound alone” value (MC38 colorectal tumor; repeated dosing, no antibody) is reported as “no effect on tumor growth”. For the same molecule, the “tumor growth delay” value (CMT167 flank lung tumors) was “significant tumor growth delay”, the “therapeutic effect, compound first and PD-1 antibody second” value (LLC tumor) was “no therapeutic benefit” and the “photon flux” value (MP2 pODD flank tumors) was “did not reduce the photon flux”. For the same molecule, the “reduction in photon flux compared to vehicle” value [1] was 45%, the “CMV luciferase activity vs vehicle” value [2] was “no difference” and the “photon flux reduction, dose comparison” value (HeLa pODD flank tumors) was “greater photon flux reduction than the 2 mg/kg dose”. For the same molecule, the “fraction of tumors responding well (T2* increase)” value ([3]; 1 mg/kg IV) was 1/4, the “fraction of tumors responding well (T2* increase)” value ([3]; 2 mg/kg IV) was 3/5 and the “tumor oxygenation” value ([3]; 1 or 2 mg/kg IV) was “increases oxygenation”.

Reference: patent publication US20230390277A1, “METHODS TO SENSITIZE TUMORS TO TREATMENT BY IMMUNOTHERAPY” (Ohio State Innovation Foundation, priority 2020, published 2023)
